pIC50: −log10 of the molar value.
Biological target: HIV-1 RT (Human immunodeficiency virus type 1 group M subtype B, UniProt P04585)
Assay: in vitro anti-HIV activity: inhibition of HIV-1 RT
Format: biochemical
Conditions: for pIC50 / activity against HIV-1 RT (result in words): in vitro; for activity against HIV-1 RT (result in words): same biological target as the IC50 values

Structure (SMILES) | pIC50 | activity against HIV-1 RT (result in words) | other results
C=C1CCC[C@H]2[C@](C)(CC3=C(O)C(=O)C=C(N)C3=O)[C@@H](C)CC[C@]12C [Compound 5, smenospongine] | 3.75 |  | 
O=C(O)P(=O)(O)O [PFA, reference compound] |  |  | inhibition ratio of HIV-1 RT (at 0.05 µM, positive control): 85%
C=C1CCC[C@H]2[C@](CO)(Cc3cc(C(=O)OC)cc(OC)c3O)[C@@H](C)CC[C@]12C [Compound 2, polyfibrospongol B] |  | inactive | 
C=C1CCC[C@H]2[C@](C)(CC(=O)C3=C(OC)C(O)OC3=O)[C@@H](C)CC[C@]12C (stereo partly drawn) [Compound 6, smenotronic acid] | 3.88 |  | 
C=C1CCC[C@H]2[C@](C)(CC3=C(O)C(=O)C=C(OC)C3=O)[C@@H](C)CC[C@]12C [Compound 3, isosemnonorthoquinone] | 3.62 |  | 
C=C1CCC[C@H]2[C@](CO)(Cc3cc(C(=O)OC)c(O)c(OC)c3O)[C@@H](C)CC[C@]12C [Compound 1, 19-hydroxy-polyfibrospongol B] |  | inactive | 
